ChEMBL document CHEMBL3046511, “Controlling Efficacy of Strobilurin Derivatives against Wheat Powdery Mildew and Eyespot” (J Pestic Sci, 2002)
In brackets after ≈: the same amount, converted by molar mass.

Legend:
[1] = system: Blumeria graminis f. sp. tritici; experiment: Fungicidal activity against Blumeria graminis f. sp. tritici in 2 weeks old wheat seedlings assessed as control of powdery mildew at 0.06 ppm pretreated 24 hr before by foliar application at 22 +/- 2 degC under greenhouse and leaf area measured after 10 days of inoculation; type: functional
[2] = system: Blumeria graminis f. sp. tritici; experiment: Fungicidal activity against Blumeria graminis f. sp. tritici in 2 weeks old wheat seedlings assessed as control of powdery mildew pretreated 24 hr before by foliar application at 22 +/- 2 degC under greenhouse and leaf area measured after 10 days of inoculation; type: functional, organism-based
[3] = system: Blumeria graminis f. sp. tritici; experiment: Fungicidal activity against Blumeria graminis f. sp. tritici in 2 weeks old wheat seedlings assessed as control of powdery mildew at 7.8 ppm pretreated 24 hr before by foliar application at 22 +/- 2 degC under greenhouse and leaf area measured after 10 days of inoculation; type: functional
[4] = system: Blumeria graminis f. sp. tritici; experiment: Fungicidal activity against Blumeria graminis f. sp. tritici in 2 weeks old wheat seedlings assessed as control of powdery mildew at 2 ppm pretreated 24 hr before by foliar application at 22 +/- 2 degC under greenhouse and leaf area measured after 10 days of inoculation; type: functional
[5] = system: Blumeria graminis f. sp. tritici; experiment: Fungicidal activity against Blumeria graminis f. sp. tritici in 2 weeks old wheat seedlings assessed as control of powdery mildew at 31.3 ppm pretreated 24 hr before by foliar application at 22 +/- 2 degC under greenhouse and leaf area measured after 10 days of inoculation; type: functional
Podosphaera fuliginea [6] = experiment: Fungicidal activity against Podosphaera fuliginea in cucumber cotyledon assessed as control of powdery mildew measured as length inhibition at 7.8 ppm treated 24 hr inoculation at 22 +/- 2 degC measured after 10 days by vapour-phase activity test; type: functional
[7] = system: Blumeria graminis f. sp. tritici; experiment: Fungicidal activity against Blumeria graminis f. sp. tritici in 2 weeks old wheat seedlings assessed as control of powdery mildew at 0.5 ppm pretreated 24 hr before by foliar application at 22 +/- 2 degC under greenhouse and leaf area measured after 10 days of inoculation; type: functional
Podosphaera fuliginea [8] = experiment: Fungicidal activity against Podosphaera fuliginea in cucumber cotyledon assessed as control of powdery mildew measured as width inhibition at 7.8 ppm treated 24 hr inoculation at 22 +/- 2 degC measured after 10 days by vapour-phase activity test; type: functional
[9] = system: Blumeria graminis f. sp. tritici; experiment: Fungicidal activity against Blumeria graminis f. sp. tritici in 2 weeks old wheat seedlings assessed as control of powdery mildew at 0.125 ppm pretreated 24 hr before by foliar application at 22 +/- 2 degC under greenhouse and leaf area measured after 10 days of inoculation; type: functional
Oculimacula yallundae [10] = experiment: Fungicidal activity against W-type Oculimacula yallundae assessed as inhibition of mycelial growth at 20 degC for 14 days in presence of 50 ppm flovone; type: functional, organism-based; details: for MIC: Oculimacula yallundae, 336 h
Oculimacula yallundae [11] = experiment: Fungicidal activity against W-type Oculimacula yallundae assessed as inhibition of mycelial growth at 20 degC for 14 days; type: functional, organism-based; details: for MIC: Oculimacula yallundae, 336 h
[12] = system: Blumeria graminis f. sp. tritici; experiment: Fungicidal activity against Blumeria graminis f. sp. tritici in 2 weeks old wheat seedlings assessed as control of powdery mildew at 125 ppm pretreated 24 hr before by foliar application at 22 +/- 2 degC under greenhouse and leaf area measured after 10 days of inoculation; type: functional
Podosphaera fuliginea [13] = experiment: Fungicidal activity against Podosphaera fuliginea in cucumber cotyledon assessed as control of powdery mildew measured as length inhibition at 2 ppm treated 24 hr inoculation at 22 +/- 2 degC measured after 10 days by vapour-phase activity test; type: functional
Podosphaera fuliginea [14] = experiment: Fungicidal activity against Podosphaera fuliginea in cucumber cotyledon assessed as control of powdery mildew measured as width inhibition at 2 ppm treated 24 hr inoculation at 22 +/- 2 degC measured after 10 days by vapour-phase activity test; type: functional

Structure (SMILES) | Activity [1] [%] | EC50 [2] [ppm] | Activity [3] [%] | Activity [4] [%] | Activity [5] [%] | INH (Podosphaera fuliginea [6]) [mm] | Activity [7] [%] | INH (Podosphaera fuliginea [8]) [mm] | Activity [9] [%] | EC50 (Oculimacula yallundae [10]) [ppm] | MIC (Oculimacula yallundae [10]) [mg/L] | EC50 (Oculimacula yallundae [11]) [ppm] | MIC (Oculimacula yallundae [11]) [mg/L] | Activity [12] [%] | INH (Podosphaera fuliginea [13]) [mm] | INH (Podosphaera fuliginea [14]) [mm]
CNC(=O)/C(=N/OC)c1ccccc1Oc1ncc(Cl)cc1C(F)(F)F | 50 | 0.05 | 100 | 96 | 100 | 8.9 | 89 | 10.7 | 60 | 0.08 | 1 | 0.33 | < 125 |  |  | 
CNC(=O)/C(=N/OC)c1ccccc1Oc1cc(C)ccc1C | 22 | 0.07 | 100 | 98 | 100 |  | 94 |  | 79 | 0.03 | 1 | 0.13 | < 125 |  |  | 
CO/C=C(/C(=O)OC)c1ccccc1Oc1cc(Oc2ccccc2C#N)ncn1 [AZOXYSTROBIN] |  | 1.39 | 85 | 64 | 87 |  | 35 |  | 5 | 0.41 | 25 | 3.2 | < 125 | 95 |  | 
OC(c1ccc(Cl)cc1)(c1cncnc1)c1ccccc1Cl (stereo unspecified) [FENARIMOL] |  | 0.58 | 94 | 84 | 98 |  | 50 |  | 0 |  |  | 1.02 | 25 (≈ 75.5 µM) | 98 |  | 
CO/N=C(/C(=O)OC)c1ccccc1COc1ccccc1C [KRESOXIM-METHYL] |  | 0.95 | 86 | 68 | 92 | <20 | 39 | <20 | 14 | 0.11 | 5 | 0.79 | < 125 | 100 | 12.7 | 13.5
CCCN(CCOc1c(Cl)cc(Cl)cc1Cl)C(=O)n1ccnc1 [PROCHLORAZ] |  | 3.39 | 70 | 57 | 70 |  | 23 |  | 0 |  |  | 0.06 | 5 (≈ 13.3 µM) | 92 |  | 
COC(=O)NC(=S)Nc1ccccc1NC(=S)NC(=O)OC [THIOPHANATE METHYL] |  |  |  |  |  |  |  |  |  |  |  | 1.18 | 25 (≈ 73 µM) |  |  | 
CC(C)(C)C(=O)C(Oc1ccc(Cl)cc1)n1cncn1 (stereo unspecified) [TRIADIMEFON] |  | 1.6 | 82 | 57 | 94 | <20 | 30 | <20 | 0 |  |  | 7.81 | < 125 | 99 |  | 
